A value given as a limit tells only on which side of the number the result lay.

Data set [1] addresses T1, collagenase of the human monocytic stock U937 (Homo sapiens, UniProt P03956).
T1 construct: the collagenase of the human monocytic stock U937; endogenous in cells; host or cells: U937 human monocytic cell line
T1 sequence (P03956 100-469): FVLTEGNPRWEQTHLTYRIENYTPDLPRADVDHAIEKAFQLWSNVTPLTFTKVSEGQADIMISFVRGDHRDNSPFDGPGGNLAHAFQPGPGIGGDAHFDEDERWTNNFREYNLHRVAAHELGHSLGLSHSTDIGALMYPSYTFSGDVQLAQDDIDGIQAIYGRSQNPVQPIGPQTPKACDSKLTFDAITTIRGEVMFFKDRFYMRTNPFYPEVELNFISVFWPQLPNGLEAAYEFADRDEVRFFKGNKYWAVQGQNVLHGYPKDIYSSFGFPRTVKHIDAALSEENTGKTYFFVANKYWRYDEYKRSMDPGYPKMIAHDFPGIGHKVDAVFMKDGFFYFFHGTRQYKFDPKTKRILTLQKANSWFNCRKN
The data set can be described thus: Activity on collagenase. It is filed as biochemical. The settings on record: radiomarked collagen, 27° C., 16 hours; read-out: C150 (nM) collagenase.

Data set [2] deals with T2, 72 kDa gelatinase of human origin (Homo sapiens, UniProt P08253).
T2 sequence (P08253 110-660): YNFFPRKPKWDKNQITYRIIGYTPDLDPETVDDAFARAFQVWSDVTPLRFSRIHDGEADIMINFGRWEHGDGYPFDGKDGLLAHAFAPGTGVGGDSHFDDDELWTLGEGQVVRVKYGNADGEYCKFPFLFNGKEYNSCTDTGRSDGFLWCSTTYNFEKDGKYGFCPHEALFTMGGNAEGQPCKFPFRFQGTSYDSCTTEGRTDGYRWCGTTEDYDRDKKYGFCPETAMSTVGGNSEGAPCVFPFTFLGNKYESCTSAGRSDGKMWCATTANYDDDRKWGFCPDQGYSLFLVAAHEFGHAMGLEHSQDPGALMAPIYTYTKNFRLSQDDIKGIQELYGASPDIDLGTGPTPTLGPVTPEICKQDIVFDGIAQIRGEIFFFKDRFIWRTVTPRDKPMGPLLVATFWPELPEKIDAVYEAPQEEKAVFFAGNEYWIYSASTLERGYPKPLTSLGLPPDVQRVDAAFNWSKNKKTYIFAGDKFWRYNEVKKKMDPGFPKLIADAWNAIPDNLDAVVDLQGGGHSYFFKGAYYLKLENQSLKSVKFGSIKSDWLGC
Nature of the data set: Activity on gelatinase, synthetic substrate. The settings on record: performed on synthetic substrate; read-out: C150 (nM) gelatinase 72 kDa**. It is filed as biochemical. The protocol:
The anti-gelatinase activity of the compounds according to the invention was determined on 72 kDa gelatinase of human origin, in accordance with the operating mode described by Knight, C. G., Willenbrock, F., Murphy, G. (FEBS Letters, 296 (3), 263-266, 1992).
The gelatinase was incubated at 37° C. for 10 minutes, and its activity was determined by the increase in fluorescence of the product of Mca-Pro-Leu breakdown of the Mca-Pro-Leu-Gly-Leu-Dpa-Ala-Arg-NH2 synthetic substrate.
The inhibiting concentration C150 for each compound was determined by measurement of the activity of the enzyme in the presence of the inhibitor at a concentration ranging between 10^−7 and 10^−12 M (the inhibitor is dissolved at a concentration of 10^−2 M in DMSO, then diluted successively by tenths in DMSO to 10^−4 M, then in the buffer: Tris, HCl 50 mM+0.05% Brij 35; CaCl2 10 mM; NaCl 0.15 M).

The target in data set [3] is stromelysine of human origin (Homo sapiens, UniProt P08254). The data set can be described thus: Activity on stromelysine. It is filed as biochemical. The settings on record: radiomarked transferrin, 37° C., 16 hours; read-out: C150 (nM) stromelysine. How it is done: The stromelysine was incubated at 37° C. for 16 hours with radiomarked transferrin, and its activity was determined by the release of the soluble peptides produced by the enzymatic breakdown of the transferrin. The inhibiting concentration C150 for each compound was determined by measurement of the activity of the enzyme in the presence of the inhibitor at a concentration ranging between 10^−7 and 10^−12 M (the inhibitor is dissolved in the same manner as for collagenase).
Chain of stromelysine of human origin (P08254 100-477): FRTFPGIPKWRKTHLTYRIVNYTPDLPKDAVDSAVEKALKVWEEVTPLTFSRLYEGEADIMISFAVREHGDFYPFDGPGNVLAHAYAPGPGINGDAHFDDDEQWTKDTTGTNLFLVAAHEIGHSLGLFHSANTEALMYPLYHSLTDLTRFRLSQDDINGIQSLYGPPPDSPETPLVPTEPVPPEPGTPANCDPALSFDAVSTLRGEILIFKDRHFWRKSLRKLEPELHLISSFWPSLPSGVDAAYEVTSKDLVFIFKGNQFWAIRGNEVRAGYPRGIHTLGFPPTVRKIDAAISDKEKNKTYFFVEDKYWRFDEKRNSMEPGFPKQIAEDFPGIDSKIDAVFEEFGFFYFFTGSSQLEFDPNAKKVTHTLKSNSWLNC

The target of data set [4] is 92 kDa gelatinase of human origin (Homo sapiens, UniProt P14780). The data set can be described thus: Activity on gelatinase, radiomarked gelatin. The class given is biochemical. The settings on record: test performed with radiomarked gelatin; read-out: C150 (nM) gelatinase 92 kDa*. In short, it runs like this: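 Inhibiting concentration (C150) derived from enzyme activity across inhibitor levels of 10^−7 to 10^−12 M. Read-out is soluble peptide released from radiolabelled gelatin by human 92 kDa gelatinase after 16 hours at 37° C.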
Chain of 92 kDa gelatinase of human origin (P14780 94-707): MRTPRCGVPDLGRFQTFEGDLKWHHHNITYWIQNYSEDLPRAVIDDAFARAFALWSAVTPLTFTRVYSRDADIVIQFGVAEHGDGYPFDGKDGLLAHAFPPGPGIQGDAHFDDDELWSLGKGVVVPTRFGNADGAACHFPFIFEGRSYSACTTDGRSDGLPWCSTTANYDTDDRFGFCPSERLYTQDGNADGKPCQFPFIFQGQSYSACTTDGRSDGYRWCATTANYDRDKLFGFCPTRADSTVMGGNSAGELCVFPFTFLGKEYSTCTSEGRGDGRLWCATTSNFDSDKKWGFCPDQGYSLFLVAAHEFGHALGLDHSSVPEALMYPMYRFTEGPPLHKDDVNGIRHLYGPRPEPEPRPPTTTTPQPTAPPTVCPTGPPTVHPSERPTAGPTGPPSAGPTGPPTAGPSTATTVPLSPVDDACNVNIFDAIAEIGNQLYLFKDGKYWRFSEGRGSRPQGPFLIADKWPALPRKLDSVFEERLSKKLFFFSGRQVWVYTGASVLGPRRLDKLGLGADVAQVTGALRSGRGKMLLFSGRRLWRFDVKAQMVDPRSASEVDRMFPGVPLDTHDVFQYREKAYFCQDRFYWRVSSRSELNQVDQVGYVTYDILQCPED

For data set [5], the system named is release of TNF from the peritoneal macrophages of mice stimulated by LPS. Nature of the data set: Inhibition of the production of TNF in vitro. The following applies: Peritoneal macrophage; mouse peritoneal macrophages, LPS 100 ng/ml; read-out: C150 (μM) TNF. The class given is cell-based.
Data set [6] has as its system metalloproteinase (MMP). The settings on record: J. Am. Chem. Soc. (1995), 117, 4671-4682; cited from earlier work.
The subject of data set [7] is femoral head cartilage of the rat implanted subcutaneously in mice. The data set can be described thus: Inhibition of the breakdown of cartilage in vivo. The following applies: 10 mg/kg i.p. twice a day, 21 days. The protocol:
The activities of the compounds of example 1 and example 10 comparatively to the compound BB16 were determined in a model of breakdown of cartilage in accordance with the operating mode described by Bottomley, K. M. K., Griffith, S. R. J., Rising, T. G., Steward, A. (Brit. J. Pharmacol. 21, 287-289, 1988). Femoral head cartilage of the rat, wrapped in sterile cotton, is implanted subcutaneously on the backs of mice. After 21 days, the mice are euthanized, the cartilages recovered and weighed. The animals are treated each day, twice a day, with one 10-mg/kg dose i.p.

Data set [8] concerns metalloproteinase (MMP). The settings on record: Bioorg. Med. Chem. Letters (1996), 6, 1719-1724; cited from earlier work.
In data set [9] the test system is female Balb/c mice (D-galactosamine + LPS shock). The data set can be described thus: Inhibition of septic shock. The class given is in vivo. The following applies: i.p. 30 minutes prior to induction of the shock; survival over 48 hours. How it is done:
Septic shock is induced in female Balb/c mice in accordance with the procedure described by Mohler, K. M. et al. (Nature, 370, 218-220, 1994). Briefly, the shock is induced by i.p. injection of 20 mg of D-galactosamine and i.v. injection of 20 ng of LPS. The survival of the animals is evaluated for the following 48 hours.
The products to be tested are injected i.p. 30 minutes prior to induction of the shock. The compounds according to the invention protect from shock from 10 to 50 mg/kg. For instance, the compound of example 10 protects at 50 mg/kg.

In general, melting point refers to the temperature, or range, at which the solid turns liquid. For the molecule `CNC(=O)[C@H](Cc1ccc(Br)cc1)NC(=O)[C@](O)(CC(C)C)[C@H](C)C(=O)NO` [Example 11, N-2(S)[-1(S)(hydroxycarbamoyl)-1 ethyl]-2(S) hydroxy 4-methyl pentanoyl L-4-bromophenylalanine N-methylamide], the melting point is 214 °C (dec.). Also, the IC50 in data set [1] is 10 nM. The IC50 in data set [2] came to 2 nM. The IC50 in data set [3] is 37 nM. Further, the IC50 in data set [4] was determined as 2 nM. Besides, the IC50 in [5] came out at 0.61 µM.
Turning to `CNC(=O)[C@H](Cc1c[nH]c2ccccc12)NC(=O)[C@@](C)(CC(=O)NO)CC(C)C` [compound VI], in the data set with metalloproteinase (MMP) [6], the “loss of activity (factor) on substitution of the hydrogen with a methyl, compound V versus compound VI” value was 300.
In the case of `CNC(=O)[C@H](Cc1ccc(OC)cc1)NC(=O)[C@](O)(CC(C)C)[C@H](C)C(=O)NO` [Example 1], the IC50 in data set [1] was found to be 5 nM; in [2] it was 1 nM; in [3] it was 15 nM; in data set [4], 1 nM; in data set [5], 1 µM. The “inhibition of weight loss of the cartilage” value in data set [7] came out at 42%.
For the molecule `CNC(=O)[C@H](Cc1ccc(OC)cc1)NC(=O)C(C)(CC(=O)NO)c1ccccc1` (some centres unmarked) [VIII], the “activity on gem disubstitution, versus compound VII” value with metalloproteinase (MMP) [8] is “significant loss of activity”.
Take `CNC(=O)[C@H](Cc1ccc(Cl)c(Cl)c1)NC(=O)[C@](O)(CC(C)C)[C@H](O)C(=O)NO` [Example 30]: the melting point was found to be 194.1 °C. In addition, the IC50 in [1] was 11 nM. Besides, the IC50 in [3] was over 1000 nM. The IC50 in [4] came out at 7 nM. For the same molecule, the IC50 in data set [5] was found to be 3.6 µM.
As to `CNC(=O)[C@H](Cc1ccc(OC)cc1)NC(=O)C1(CC(=O)NO)CCc2ccccc21` (some centres unmarked) [IX], the “activity on gem disubstitution, versus compound VII” value in the data set with metalloproteinase (MMP) [8] is listed as “significant loss of activity”.
Consider `CNC(=O)[C@H](Cc1ccc(Cl)c(Cl)c1)NC(=O)[C@](O)(CC(C)C)[C@H](C)C(=O)NO` [Example 18, N-2(S)[1(S)hydroxycarbamoyl-1 ethyl]-2 (S) hydroxy 4-methylpentanoyl L-3,4-dichlorophenylalanine N-methylamide], for which the melting point was 216 °C (dec.). In addition, the IC50 in data set [1] is 2 nM. Moreover, the IC50 in [2] turned out to be 0.4 nM. Moreover, the IC50 in data set [3] stood at 6 nM. In data set [4], the IC50 was determined as 0.002 nM. Further, the IC50 in data set [5] was at most 0.14 µM.
In the case of `CNC(=O)[C@H](Cc1ccccc1)NC(=O)[C@](O)(CC(C)C)[C@H](C)C(=O)NO` [Example 4, N-2(S)[1(S)(hydroxycarbamoyl)ethyl] 2(S) hydroxy4-methyl pentanoyl L-phenyl alanine N-methylamide], the melting point was 174.2 °C (dec.). Further, in data set [1], the IC50 amounted to 36 nM. In addition, in [2], the IC50 is 1.6 nM. Besides, in [3], the IC50 stood at 29 nM. For the same molecule, in [4], the IC50 was determined as 10 nM.
For `CNC(=O)[C@H](Cc1ccc(OC)cc1)NC(=O)[C@](O)(CC(C)C)[C@H](O)C(=O)NO` [Example 29], the melting point was 199 °C (dec.). The IC50 in [1] was determined as 26 nM. The IC50 in data set [2] was determined as 13 nM. The IC50 in data set [4] was found to be 80 nM.
Take `CNC(=O)[C@H](Cc1ccc(F)cc1)NC(=O)[C@](O)(CC(C)C)[C@H](C)C(=O)NO` [Example 16, N-2(S)[1(S)hydroxycarbamoyl-1 ethyl]-2(S) hydroxy 4-methylpentanoyl L-4-fluorophenylalanine N-methylamide]: the melting point amounted to 186.5 °C. Besides, the IC50 in data set [1] worked out at 14 nM. For the same molecule, in [2], the IC50 came out at 1.2 nM. For the same molecule, the IC50 in data set [4] was 2 nM. The IC50 in data set [5] was 0.6 µM.
In the case of `CNC(=O)[C@H](Cc1ccc(Cl)cc1)NC(=O)[C@](O)(CC(C)C)[C@H](C)C(=O)NO` [Example 10, N-2(S) [-1(S) (hydroxycarbamoyl)-1 ethyl]-2(S) hydroxy-4-methyl pentanoyl L4-chlorophenylalanine N-methylamide], the IC50 in data set [1] was found to be 4 nM; in data set [2] it was 1 nM; in data set [3], 48 nM; in [4], 2 nM; in data set [5] it was 0.4 µM. Further, the “inhibition of weight loss of the cartilage” value in data set [7] is 65%. Moreover, in data set [9], the “dose that protects from septic shock” value was found to be 50 mg/kg.

Source of the values: patent publication US6344457B1, “Amino acid derivatives inhibiting extracellular matrix metalloproteinase and TNF alpha release” (Chiesi Farmaceutici S.p.A., priority 1997, dated 2002).
